Experiments:
NS3-NS4 [1] = target: T1, NS3-NS4 (Hepatitis C virus genotype 1a, UniProt P27958); experiment: cell-based; settings: EC50, NS3-NS4 activity
NS3-NS4 [2] = target: T1, NS3-NS4; experiment: NS3-NS4 activity, IC50 (Example 37, Table 8); type: biochemical

T1 sequence (P27958 1027-1657): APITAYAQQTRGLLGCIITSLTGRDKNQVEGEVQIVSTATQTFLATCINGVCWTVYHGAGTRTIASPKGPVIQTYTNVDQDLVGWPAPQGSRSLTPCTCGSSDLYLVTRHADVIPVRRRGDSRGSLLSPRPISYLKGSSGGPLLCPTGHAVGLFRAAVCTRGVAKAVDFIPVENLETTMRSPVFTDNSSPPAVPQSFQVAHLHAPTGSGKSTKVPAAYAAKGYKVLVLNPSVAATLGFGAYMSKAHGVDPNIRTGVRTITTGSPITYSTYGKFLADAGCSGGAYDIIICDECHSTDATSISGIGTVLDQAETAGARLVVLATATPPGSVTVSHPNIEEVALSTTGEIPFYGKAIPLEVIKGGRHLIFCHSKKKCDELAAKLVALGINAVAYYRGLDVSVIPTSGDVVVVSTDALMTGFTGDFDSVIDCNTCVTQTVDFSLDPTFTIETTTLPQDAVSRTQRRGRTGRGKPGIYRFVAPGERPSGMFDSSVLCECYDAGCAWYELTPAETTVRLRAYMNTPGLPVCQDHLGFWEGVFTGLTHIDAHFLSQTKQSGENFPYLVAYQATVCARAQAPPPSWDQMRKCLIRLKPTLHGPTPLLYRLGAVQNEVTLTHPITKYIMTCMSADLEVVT
T1 sequence (P27958 1658-1711): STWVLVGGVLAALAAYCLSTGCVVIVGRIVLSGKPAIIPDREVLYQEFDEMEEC

SMILES | EC50 (NS3-NS4 [1]) [nM] | IC50 (NS3-NS4 [2]) [nM]
O=C1N[C@]2(C(=O)NS(=O)(=O)C3CC3)C[C@H]2/C=C\CCCCC[C@H](Nc2nc(-c3cccnc3)cs2)C(=O)N2C[C@H](OC(=O)N3Cc4cccc(F)c4C3)C[C@@H]12 [Compound 214] | < 100 | < 100
O=C1N[C@]2(C(=O)NS(=O)(=O)C3CC3)C[C@H]2/C=C\CCCCC[C@H](Nc2nc(-c3cccc(F)c3)cs2)C(=O)N2C[C@H](OC(=O)N3Cc4cccc(F)c4C3)C[C@@H]12 [Compound 215] | < 100 | < 100
O=C1N[C@]2(C(=O)NS(=O)(=O)C3CC3)C[C@H]2/C=C\CCCCC[C@H](Nc2nc(-c3ccc(C(F)(F)F)cc3)cs2)C(=O)N2C[C@H](OC(=O)N3Cc4cccc(F)c4C3)C[C@@H]12 [Compound 216] | < 100 | < 100
O=C1N[C@]2(C(=O)NS(=O)(=O)C3CC3)C[C@H]2/C=C\CCCCC[C@H](Nc2nc(-c3nc4ccccc4s3)cs2)C(=O)N2C[C@H](OC(=O)N3Cc4cccc(F)c4C3)C[C@@H]12 [Compound 217] | < 100 | < 100
O=C1N[C@]2(C(=O)NS(=O)(=O)C3CC3)C[C@H]2/C=C\CCCCC[C@H](Nc2nc(-c3cccc(C(F)(F)F)c3)cs2)C(=O)N2C[C@H](OC(=O)N3Cc4cccc(F)c4C3)C[C@@H]12 [Compound 218] | < 100 | < 100
O=C1N[C@]2(C(=O)NS(=O)(=O)C3CC3)C[C@H]2/C=C\CCCCC[C@H](Nc2nc(-c3ccc(F)cc3F)cs2)C(=O)N2C[C@H](OC(=O)N3Cc4cccc(F)c4C3)C[C@@H]12 [Compound 219] | < 100 | < 100
O=C1N[C@]2(C(=O)NS(=O)(=O)C3CC3)C[C@H]2/C=C\CCCCC[C@H](Nc2nc(-c3ccc(Br)cc3)cs2)C(=O)N2C[C@H](OC(=O)N3Cc4cccc(F)c4C3)C[C@@H]12 [Compound 220] | < 100 | < 100
O=C1N[C@]2(C(=O)NS(=O)(=O)C3CC3)C[C@H]2/C=C\CCCCC[C@H](Nc2nc(-c3ccc(OC(F)(F)F)cc3)cs2)C(=O)N2C[C@H](OC(=O)N3Cc4cccc(F)c4C3)C[C@@H]12 [Compound 222] | < 100 | < 100
O=C1N[C@]2(C(=O)NS(=O)(=O)C3CC3)C[C@H]2/C=C\CCCCC[C@H](Nc2nc(-c3ccc(F)c(F)c3)cs2)C(=O)N2C[C@H](OC(=O)N3Cc4cccc(F)c4C3)C[C@@H]12 [Compound 223] | < 100 | < 100
O=C1NC2(C(=O)NS(=O)(=O)C3CC3)C[C@H]2/C=C\CCCCC[C@H](Nc2nc(-c3ccc(F)cc3)cs2)C(=O)N2C[C@H](OC(=O)N3Cc4cccc(F)c4C3)C[C@@H]12 (stereo partly shown) [Compound 224] | < 100 | < 100
O=C1N[C@]2(C(=O)NS(=O)(=O)C3CC3)C[C@H]2/C=C\CCCCC[C@H](Nc2nc(-c3ccc(F)cn3)cs2)C(=O)N2C[C@H](OC(=O)N3Cc4cccc(F)c4C3)C[C@@H]12 [Compound 225] | < 100 | < 100
Cc1cnc(N[C@H]2CCCCC/C=C\[C@@H]3C[C@@]3(C(=O)NS(=O)(=O)C3CC3)NC(=O)[C@@H]3C[C@@H](OC(=O)N4Cc5cccc(F)c5C4)CN3C2=O)s1 [Compound 226] | < 100 | < 100
Cc1csc(N[C@H]2CCCCC/C=C\[C@@H]3C[C@@]3(C(=O)NS(=O)(=O)C3CC3)NC(=O)[C@@H]3C[C@@H](OC(=O)N4Cc5cccc(F)c5C4)CN3C2=O)n1 [Compound 227] | < 100 | < 100
O=C1N[C@]2(C(=O)NS(=O)(=O)C3CC3)C[C@H]2/C=C\CCCCC[C@H](Nc2nc(-c3ccc(F)cn3)cs2)C(=O)N2C[C@H](OC(=O)N3Cc4cccc(Cl)c4C3)C[C@@H]12 [Compound 228] | < 100 | < 100
O=C1N[C@]2(C(=O)NS(=O)(=O)C3CC3)C[C@H]2/C=C\CCCCC[C@H](Nc2nc(-c3ccc(F)cn3)cs2)C(=O)N2C[C@H](OC(=O)N3CCc4ccccc4C3)C[C@@H]12 [Compound 229] | < 100 | < 100
CCc1cnc(N[C@H]2CCCCC/C=C\[C@@H]3C[C@@]3(C(=O)NS(=O)(=O)C3CC3)NC(=O)[C@@H]3C[C@@H](OC(=O)N4Cc5cccc(F)c5C4)CN3C2=O)s1 [Compound 230] | < 100 | < 100
Cc1nc(N[C@H]2CCCCC/C=C\[C@@H]3C[C@@]3(C(=O)NS(=O)(=O)C3CC3)NC(=O)[C@@H]3C[C@@H](OC(=O)N4Cc5cccc(F)c5C4)CN3C2=O)sc1C [Compound 231] | < 100 | < 100
O=C1N[C@]2(C(=O)NS(=O)(=O)C3CC3)C[C@H]2/C=C\CCCCC[C@H](Nc2nc(-c3ccc(F)cc3)cs2)C(=O)N2C[C@H](OC(=O)N3CCc4ccccc4C3)C[C@@H]12 [Compound 232] | < 100 | < 100

SMILES | EC50 (NS3-NS4 [1]) [nM] | IC50 (NS3-NS4 [2]) [nM]
CC(=O)O[C@@H]1C[C@H]2C(=O)N[C@]3(C(=O)NS(=O)(=O)C4CC4)C[C@H]3/C=C\CCCCC[C@H](Nc3nc(-c4ccc(F)cc4)cs3)C(=O)N2C1 [Compound 233] | 100 to 1000 | < 100
CC(=O)O[C@@H]1C[C@H]2C(=O)N[C@]3(C(=O)NS(=O)(=O)C4CC4)C[C@H]3/C=C\CCCCC[C@H](Nc3nc(-c4ccccc4)c(-c4ccccc4)s3)C(=O)N2C1 [Compound 235] | 100 to 1000 | < 100
CC(=O)O[C@@H]1C[C@H]2C(=O)N[C@]3(C(=O)NS(=O)(=O)C4CC4)C[C@H]3/C=C\CCCCC[C@H](Nc3nc(-c4ccc(F)cc4)c(C)s3)C(=O)N2C1 [Compound 239] | 100 to 1000 | < 100
CC(C)(C)O[C@@H]1C[C@H]2C(=O)N[C@]3(C(=O)NS(=O)(=O)C4CC4)C[C@H]3/C=C\CCCCC[C@H](Nc3nc(-c4ccccc4)c(-c4ccccc4)s3)C(=O)N2C1 [Compound 242] | 1000 to 10000 | < 100
Cc1ccc(S(=O)(=O)NC(=O)[C@@]23C[C@H]2/C=C\CCCCC[C@H](NC(=O)OC(C)(C)C)C(=O)N2C[C@H](OC(=O)N4Cc5cccc(F)c5C4)C[C@H]2C(=O)N3)cc1F [Compound 301, (2R,6S,13aS,14aR,16aS,Z)-6-(tert-butoxycarbonylamino)-14a-(3-fluoro-4-methylphenylsulfonylcarbamoyl)-5,16-dioxo-1,2,3,5,6,7,8,9,10,11,13a,14,14a,15,16,16a-hexadecahydrocyclopropa[e]pyrrolo[1,2-a][1,4]diazacyclopentadecin-2-yl 4-fluoroisoindoline-2-carboxylate] | < 100 | < 100
Cc1cc(S(=O)(=O)NC(=O)[C@@]23C[C@H]2/C=C\CCCCC[C@H](NC(=O)OC(C)(C)C)C(=O)N2C[C@H](OC(=O)N4Cc5cccc(F)c5C4)C[C@H]2C(=O)N3)c(C)s1 [Compound 302, (2R,6S,13aS,14aR,16aS,Z)-6-(tert-butoxycarbonylamino)-14a-(2,5-dimethylthiophen-3-ylsulfonylcarbamoyl)-5,16-dioxo-1,2,3,5,6,7,8,9,10,11,13a,14,14a,15,16,16a-hexadecahydrocyclopropa[e]pyrrolo[1,2-a][1,4]diazacyclopentadecin-2-yl 4-fluoroisoindoline-2-carboxylate] | < 100 | < 100
CN(C(=O)N[C@H]1CCCCC/C=C\[C@@H]2C[C@@]2(C(=O)NS(=O)(=O)c2ccccc2)NC(=O)[C@@H]2C[C@@H](OC(=O)N3Cc4cccc(F)c4C3)CN2C1=O)C(C)(C)C [Compound 303, (2R,6S,13aS,14aR,16aS,Z)-6-(3-tert-butyl-3-methylureido)-5,16-dioxo-14a-(phenylsulfonylcarbamoyl)-1,2,3,5,6,7,8,9,10,11,13a,14,14a,15,16,16a-hexadecahydrocyclopropa[e]pyrrolo[1,2-a][1,4]diazacyclopentadecin-2-yl 4-fluoroisoindoline-2-carboxylate] | < 100 | < 100
CC(C)(C)OC(=O)N[C@H]1CCCCC/C=C\[C@@H]2C[C@@]2(C(=O)NS(=O)(=O)c2c(F)cccc2F)NC(=O)[C@@H]2C[C@@H](OC(=O)N3Cc4cccc(F)c4C3)CN2C1=O [Compound 306] | 100 to 1000 | < 100
CC(C)(C)OC(=O)N[C@H]1CCCCC/C=C\[C@@H]2C[C@@]2(C(=O)NS(=O)(=O)c2cc(F)ccc2F)NC(=O)[C@@H]2C[C@@H](OC(=O)N3Cc4cccc(F)c4C3)CN2C1=O [Compound 307] | < 100 | < 100
CC(C)(C)OC(=O)N[C@H]1CCCCC/C=C\[C@@H]2C[C@@]2(C(=O)NS(=O)(=O)c2cccc(C(F)(F)F)c2)NC(=O)[C@@H]2C[C@@H](OC(=O)N3Cc4cccc(F)c4C3)CN2C1=O [Compound 308] | < 100 | < 100
CC(C)(C)OC(=O)N[C@H]1CCCCC/C=C\[C@@H]2C[C@@]2(C(=O)NS(=O)(=O)c2cc(F)cc(F)c2)NC(=O)[C@@H]2C[C@@H](OC(=O)N3Cc4cccc(F)c4C3)CN2C1=O [Compound 309] | < 100 | < 100
CC(C)(C)OC(=O)N[C@H]1CCCCC/C=C\[C@@H]2C[C@@]2(C(=O)NS(=O)(=O)c2ccc(F)cc2F)NC(=O)[C@@H]2C[C@@H](OC(=O)N3Cc4cccc(F)c4C3)CN2C1=O [Compound 310] | < 100 | < 100
CC(C)(C)OC(=O)N[C@H]1CCCCC/C=C\[C@@H]2C[C@@]2(C(=O)NS(=O)(=O)c2c(Cl)cccc2Cl)NC(=O)[C@@H]2C[C@@H](OC(=O)N3Cc4cccc(F)c4C3)CN2C1=O [Compound 311] | 100 to 1000 | < 100
Cc1ccc(S(=O)(=O)NC(=O)[C@@]23C[C@H]2/C=C\CCCCC[C@H](NC(=O)OC(C)(C)C)C(=O)N2C[C@H](OC(=O)N4Cc5cccc(F)c5C4)C[C@H]2C(=O)N3)cc1Cl [Compound 312] | 100 to 1000 | < 100
Cc1ccc(C)c(S(=O)(=O)NC(=O)[C@@]23C[C@H]2/C=C\CCCCC[C@H](NC(=O)OC(C)(C)C)C(=O)N2C[C@H](OC(=O)N4Cc5cccc(F)c5C4)C[C@H]2C(=O)N3)c1 [Compound 313] | < 100 | < 100
CC(C)(C)OC(=O)N[C@H]1CCCCC/C=C\[C@@H]2C[C@@]2(C(=O)NS(=O)(=O)c2cc(Cl)ccc2F)NC(=O)[C@@H]2C[C@@H](OC(=O)N3Cc4cccc(F)c4C3)CN2C1=O [Compound 314] | < 100 | < 100
CC(C)(C)OC(=O)N[C@H]1CCCCC/C=C\[C@@H]2C[C@@]2(C(=O)NS(=O)(=O)c2ccc(F)c(F)c2)NC(=O)[C@@H]2C[C@@H](OC(=O)N3Cc4cccc(F)c4C3)CN2C1=O [Compound 315] | < 100 | < 100
